The text below walks through data of PubChem BioAssay (NCI).

Test systems include NCI-H23 lung; IGROV1 ovarian; SK-OV-3 ovarian; HCC-2998 colon; PC-3 prostate; OVCAR-8 ovarian; HS 578T breast; TK-10 renal; UACC-257 melanoma; MALME-3M melanoma.
Holding throughout (test): growth of human tumour cells (NCI), 48 h

Each structure is given as a SMILES string. Several values for one entry are separate records, joined by “and”; a condition that tells them apart may be missing. Equal values may be shown once.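 Interpolation was linear, between the two tested concentrations surrounding the appropriate level; five concentrations were tested over 48 hours in 96-well plates. GI50: concentration for 50% inhibition of growth. TGI marks complete inhibition of growth.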

As for `Cc1c(N)nc(C(CC(N)=O)NCC(N)C(N)=O)nc1C(=O)NC(C(=O)NC(C)C(O)C(C)C(=O)NC(C(=O)NCCc1nc(-c2nc(C(=O)NCCCNC(C)c3ccccc3)cs2)cs1)C(C)O)C(OC1OC(CO)C(O)C(O)C1OC1OC(CO)C(O)C(OC(N)=O)C1O)c1cnc[nH]1` (stereo not given), the GI50 in the experiment with NCI-H23 lung was 3310 nM; with IGROV1 ovarian, 8210 nM; with PC-3 prostate it was 38.8 µM; in the experiment on TK-10 renal, > 100 µM; in the experiment on UACC-257 melanoma, 56.5 µM; in the experiment with MALME-3M melanoma it was 1840 nM. Besides, the TGI was 8.37 µM and 64.6 µM in the experiment with NCI-H23 lung; 50 µM and > 100 µM in the experiment on IGROV1 ovarian; 45.6 µM with SK-OV-3 ovarian; 50 µM and > 100 µM in the experiment on HCC-2998 colon; > 100 µM in the experiment on PC-3 prostate; 50 µM and > 100 µM with OVCAR-8 ovarian. In addition, the TGI with HS 578T breast was 0.727 µM; in the experiment with TK-10 renal, 50 µM and > 100 µM; in the experiment on UACC-257 melanoma it was 50 µM and > 100 µM; with MALME-3M melanoma, 37.2 µM and > 100 µM.
Take `CC(=O)O[C@H]1C(=O)[C@@]2(C)[C@H]([C@H](OC(=O)c3ccccc3)[C@]3(O)C[C@H](OC(=O)[C@H](OC(=O)OC[C@H]4COC(C)(C)O4)[C@@H](NC(=O)c4ccccc4)c4ccccc4)C(C)=C1C3(C)C)[C@]1(OC(C)=O)CO[C@@H]1C[C@@H]2O`: the GI50 is 47.6 nM with NCI-H23 lung; 49.4 nM with IGROV1 ovarian; 232 nM in the experiment on SK-OV-3 ovarian; 9.83 nM in the experiment with HCC-2998 colon; 0.0305 µM in the experiment with PC-3 prostate; 59.8 nM with OVCAR-8 ovarian. The GI50 with HS 578T breast was 16.6 nM; in the experiment with TK-10 renal, 0.492 µM; in the experiment with MALME-3M melanoma, 227 nM. In addition, the TGI with NCI-H23 lung, with IGROV1 ovarian, in the experiment on SK-OV-3 ovarian, with HCC-2998 colon, in the experiment with PC-3 prostate and in the experiment on OVCAR-8 ovarian was > 33.3 µM throughout. Moreover, the TGI is 0.39 µM in the experiment on HS 578T breast, > 33.3 µM with TK-10 renal, > 33.3 µM in the experiment on UACC-257 melanoma and > 33.3 µM in the experiment with MALME-3M melanoma.
`CC(=O)OC12c3ccccc3-c3ccccc3C1C(C(=O)O)C2C(=O)O` (stereo not given): the TGI with NCI-H23 lung, in the experiment with IGROV1 ovarian, with SK-OV-3 ovarian, with HCC-2998 colon, with PC-3 prostate and in the experiment with OVCAR-8 ovarian was > 10 µM in each case. Also, the TGI in the experiment on HS 578T breast is > 10 µM; in the experiment on TK-10 renal, > 10 µM; with UACC-257 melanoma, > 10 µM; in the experiment with MALME-3M melanoma it was 3.09 µM.
`Nc1nc2cc(CC[C@H]3C[C@@H](n4ccc5c(N)ncnc54)[C@H](O)[C@@H]3O)ccc2cc1Br`: the GI50 in the experiment with NCI-H23 lung is 2070 nM; in the experiment with IGROV1 ovarian, 10200 nM; with SK-OV-3 ovarian it was 13400 nM; in the experiment on HCC-2998 colon, 11200 nM; in the experiment on PC-3 prostate, 11 µM; with OVCAR-8 ovarian, 7730 nM. Further, the GI50 with HS 578T breast is 14100 nM; in the experiment on TK-10 renal it was 12.2 µM; in the experiment on UACC-257 melanoma it was 3.68 µM; with MALME-3M melanoma it was 7420 nM. The TGI was determined as 23.9 µM in the experiment on NCI-H23 lung; 23.1 µM in the experiment with IGROV1 ovarian; 39.2 µM in the experiment on SK-OV-3 ovarian; 24.4 µM in the experiment with HCC-2998 colon; 25.9 µM with PC-3 prostate; 34.1 µM in the experiment with OVCAR-8 ovarian. In addition, the TGI came to 36.8 µM in the experiment on HS 578T breast, 26.3 µM with TK-10 renal, 19 µM with UACC-257 melanoma and 21.5 µM in the experiment with MALME-3M melanoma.
Take `CN(C)CCCC1(c2ccc(F)cc2)OCc2cc(-c3cc4ccccc4s3)ccc21` (stereo not given): the GI50 is 1760 nM in the experiment with NCI-H23 lung; 1140 nM with IGROV1 ovarian; 1660 nM in the experiment on SK-OV-3 ovarian; 1670 nM in the experiment with HCC-2998 colon; 1.5 µM with PC-3 prostate; 1720 nM in the experiment with OVCAR-8 ovarian. The GI50 in the experiment on HS 578T breast is 1800 nM; with TK-10 renal, 1.7 µM; in the experiment on UACC-257 melanoma, 1.8 µM; in the experiment on MALME-3M melanoma, 1540 nM. Further, the TGI with NCI-H23 lung came out at 3.34 µM; in the experiment on IGROV1 ovarian, 2.46 µM; in the experiment with SK-OV-3 ovarian, 3.04 µM; in the experiment with HCC-2998 colon, 3.11 µM; in the experiment on PC-3 prostate, 2.99 µM; in the experiment with OVCAR-8 ovarian it was 3.25 µM. Besides, the TGI in the experiment with HS 578T breast was found to be 3.96 µM; with TK-10 renal it was 3.13 µM; in the experiment on UACC-257 melanoma, 3.27 µM; in the experiment on MALME-3M melanoma, 2.98 µM.
Turning to `Clc1ccc2nc(CI)c(CI)nc2c1`, the GI50 in the experiment on NCI-H23 lung was 7370 nM; in the experiment with IGROV1 ovarian, 2730 nM; with SK-OV-3 ovarian it was 23100 nM; in the experiment on HCC-2998 colon it was 15700 nM; with PC-3 prostate, 7.02 µM; with OVCAR-8 ovarian, 2870 nM. The GI50 in the experiment with HS 578T breast was 20600 nM; with TK-10 renal, 3 µM; with UACC-257 melanoma, 4.51 µM; in the experiment on MALME-3M melanoma it was 1750 nM. In addition, the TGI is 25.8 µM in the experiment on NCI-H23 lung; 8.36 µM with IGROV1 ovarian; > 58 µM with SK-OV-3 ovarian; 30.3 µM in the experiment on HCC-2998 colon; 29.9 µM in the experiment with PC-3 prostate; > 23.5 µM in the experiment with OVCAR-8 ovarian. Moreover, the TGI is > 65.5 µM in the experiment on HS 578T breast, 10.2 µM in the experiment with TK-10 renal, 16.8 µM in the experiment on UACC-257 melanoma and 3.83 µM in the experiment on MALME-3M melanoma.
Regarding `Cn1nc(C(F)(F)F)c(-c2cc(C(F)(F)F)cc(C(F)(F)F)c2)c1-c1ccc(OCc2ccc(Cl)cc2)cc1O`, the GI50 was 1640 nM with NCI-H23 lung; 2710 nM with IGROV1 ovarian; 2820 nM in the experiment with SK-OV-3 ovarian; 2770 nM in the experiment with HCC-2998 colon; 1.88 µM in the experiment with PC-3 prostate; 2920 nM in the experiment on OVCAR-8 ovarian. In addition, the GI50 with HS 578T breast was 2190 nM; in the experiment with TK-10 renal, 3.11 µM; with UACC-257 melanoma, 2.07 µM; in the experiment on MALME-3M melanoma, 1990 nM. Besides, the TGI in the experiment with NCI-H23 lung was 6.93 µM; in the experiment on IGROV1 ovarian, 12.5 µM; with SK-OV-3 ovarian, 10.1 µM; in the experiment with HCC-2998 colon, 12.4 µM; in the experiment on PC-3 prostate, 11.5 µM; in the experiment with OVCAR-8 ovarian, 12.1 µM. Besides, the TGI in the experiment on HS 578T breast was found to be 6.78 µM; in the experiment with TK-10 renal, 11.1 µM; in the experiment with UACC-257 melanoma it was 6.11 µM; in the experiment with MALME-3M melanoma it was 5.24 µM.
Turning to `CC1(C)C2CCC1C(=O)[C@@]1(C=CC(=O)CC1)C2` (stereo not given in full), the TGI in the experiment with NCI-H23 lung, with IGROV1 ovarian, with SK-OV-3 ovarian, in the experiment on HCC-2998 colon, in the experiment on PC-3 prostate and with OVCAR-8 ovarian was > 100 µM throughout. Further, the TGI in the experiment with HS 578T breast, in the experiment with TK-10 renal, in the experiment with UACC-257 melanoma and with MALME-3M melanoma was > 100 µM throughout.
